Reference: ChEMBL document CHEMBL5291721, “A preclinical secondary pharmacology resource illuminates target-adverse drug reaction associations of marketed drugs” (Nat Commun, 2023)

Experiments:
Androgen receptor = target: T1, Androgen receptor (Homo sapiens, UniProt P10275)
T1 sequence (P10275 whole entry): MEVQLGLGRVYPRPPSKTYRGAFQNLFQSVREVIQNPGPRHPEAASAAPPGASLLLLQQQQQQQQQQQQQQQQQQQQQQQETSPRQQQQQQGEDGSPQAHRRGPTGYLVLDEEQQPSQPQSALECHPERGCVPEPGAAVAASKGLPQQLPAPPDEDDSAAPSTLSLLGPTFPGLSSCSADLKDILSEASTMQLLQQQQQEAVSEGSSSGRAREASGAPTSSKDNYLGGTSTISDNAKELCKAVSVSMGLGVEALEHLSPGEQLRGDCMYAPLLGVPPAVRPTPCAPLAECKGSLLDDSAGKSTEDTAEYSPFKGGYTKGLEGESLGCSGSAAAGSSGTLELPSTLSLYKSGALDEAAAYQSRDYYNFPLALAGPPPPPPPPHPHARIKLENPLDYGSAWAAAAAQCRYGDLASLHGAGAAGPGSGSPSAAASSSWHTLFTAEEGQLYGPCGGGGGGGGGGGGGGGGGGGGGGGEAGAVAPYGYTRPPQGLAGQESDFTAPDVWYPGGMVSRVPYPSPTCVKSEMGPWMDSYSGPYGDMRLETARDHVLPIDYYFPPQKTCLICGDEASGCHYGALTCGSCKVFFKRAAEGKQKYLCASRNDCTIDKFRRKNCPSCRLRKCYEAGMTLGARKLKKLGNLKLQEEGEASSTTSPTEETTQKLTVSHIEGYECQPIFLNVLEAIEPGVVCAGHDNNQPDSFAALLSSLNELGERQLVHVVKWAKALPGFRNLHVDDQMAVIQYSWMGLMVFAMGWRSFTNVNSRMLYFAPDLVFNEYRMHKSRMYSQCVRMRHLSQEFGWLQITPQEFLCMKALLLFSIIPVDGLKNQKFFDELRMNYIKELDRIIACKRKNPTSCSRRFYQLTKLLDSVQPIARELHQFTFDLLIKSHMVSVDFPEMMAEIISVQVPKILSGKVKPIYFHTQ

[1] = target: T2, Muscarinic acetylcholine receptor M1 (Homo sapiens, UniProt P11229); assay type: functional, cell-based
T2 sequence (P11229 whole entry): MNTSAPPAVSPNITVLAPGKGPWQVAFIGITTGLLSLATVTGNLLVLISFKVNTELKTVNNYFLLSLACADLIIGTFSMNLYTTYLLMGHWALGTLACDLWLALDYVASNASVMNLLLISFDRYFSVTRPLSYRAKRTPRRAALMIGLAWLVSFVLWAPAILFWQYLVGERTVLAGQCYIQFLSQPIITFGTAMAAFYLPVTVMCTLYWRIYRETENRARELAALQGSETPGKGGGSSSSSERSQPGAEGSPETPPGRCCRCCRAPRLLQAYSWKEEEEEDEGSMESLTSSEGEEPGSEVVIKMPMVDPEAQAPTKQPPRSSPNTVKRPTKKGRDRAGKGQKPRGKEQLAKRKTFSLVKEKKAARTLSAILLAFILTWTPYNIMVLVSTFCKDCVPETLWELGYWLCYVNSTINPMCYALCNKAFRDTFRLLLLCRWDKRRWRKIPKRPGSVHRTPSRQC

[2] = target: T2, Muscarinic acetylcholine receptor M1; assay type: functional, cell-based; remark: listed apart in the source
[3] = target: T3, 5-hydroxytryptamine receptor 3A (Homo sapiens, UniProt P46098); assay type: functional
T3 sequence (P46098 whole entry): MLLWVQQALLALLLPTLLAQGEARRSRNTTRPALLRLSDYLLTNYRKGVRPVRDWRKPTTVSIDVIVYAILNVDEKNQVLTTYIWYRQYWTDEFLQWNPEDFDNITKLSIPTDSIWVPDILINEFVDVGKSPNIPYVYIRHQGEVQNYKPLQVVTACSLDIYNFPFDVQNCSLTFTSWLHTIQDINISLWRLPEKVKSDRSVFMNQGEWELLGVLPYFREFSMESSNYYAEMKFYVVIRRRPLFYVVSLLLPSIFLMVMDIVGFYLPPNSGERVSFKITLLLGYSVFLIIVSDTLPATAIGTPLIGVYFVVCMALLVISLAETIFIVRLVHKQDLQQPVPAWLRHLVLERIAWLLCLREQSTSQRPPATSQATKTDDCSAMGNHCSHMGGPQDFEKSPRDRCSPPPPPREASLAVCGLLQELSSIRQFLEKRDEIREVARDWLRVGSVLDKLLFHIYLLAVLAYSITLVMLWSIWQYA

[4] = target: Gamma-aminobutyric acid receptor subunit alpha-1 (Rattus norvegicus, UniProt P62813)
Gamma-aminobutyric acid receptor subunit alpha-1, sequence (P62813 whole entry): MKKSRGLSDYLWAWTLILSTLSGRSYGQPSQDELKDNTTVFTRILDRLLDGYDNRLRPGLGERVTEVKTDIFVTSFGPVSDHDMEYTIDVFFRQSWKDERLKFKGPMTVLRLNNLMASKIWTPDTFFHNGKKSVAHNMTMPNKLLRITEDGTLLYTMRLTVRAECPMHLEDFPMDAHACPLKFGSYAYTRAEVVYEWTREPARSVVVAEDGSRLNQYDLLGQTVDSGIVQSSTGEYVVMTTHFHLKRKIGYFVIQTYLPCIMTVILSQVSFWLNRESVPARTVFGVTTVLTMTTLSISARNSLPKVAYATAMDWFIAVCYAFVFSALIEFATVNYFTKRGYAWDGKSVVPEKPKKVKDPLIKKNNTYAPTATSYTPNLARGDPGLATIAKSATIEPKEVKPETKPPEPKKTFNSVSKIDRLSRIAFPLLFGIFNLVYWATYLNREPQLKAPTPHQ

[5] = target: T4, Alpha-2A adrenergic receptor (Homo sapiens, UniProt P08913); assay type: functional, cell-based
T4 sequence (P08913 whole entry): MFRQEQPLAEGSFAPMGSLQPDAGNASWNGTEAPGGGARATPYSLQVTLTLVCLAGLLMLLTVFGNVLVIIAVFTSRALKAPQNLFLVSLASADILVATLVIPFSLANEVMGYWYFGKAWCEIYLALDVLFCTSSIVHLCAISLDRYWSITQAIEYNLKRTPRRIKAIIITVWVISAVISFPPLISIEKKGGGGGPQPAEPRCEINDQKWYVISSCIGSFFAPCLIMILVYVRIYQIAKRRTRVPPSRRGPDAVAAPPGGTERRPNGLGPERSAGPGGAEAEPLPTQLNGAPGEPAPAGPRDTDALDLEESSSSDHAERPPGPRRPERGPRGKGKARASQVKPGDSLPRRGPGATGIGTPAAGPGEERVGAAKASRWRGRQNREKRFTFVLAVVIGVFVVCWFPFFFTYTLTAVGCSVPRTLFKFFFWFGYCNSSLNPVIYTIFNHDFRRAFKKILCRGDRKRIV

[6] = target: 5-hydroxytryptamine receptor 2B (Homo sapiens, UniProt P41595); assay type: functional, cell-based
5-hydroxytryptamine receptor 2B, sequence (P41595 whole entry): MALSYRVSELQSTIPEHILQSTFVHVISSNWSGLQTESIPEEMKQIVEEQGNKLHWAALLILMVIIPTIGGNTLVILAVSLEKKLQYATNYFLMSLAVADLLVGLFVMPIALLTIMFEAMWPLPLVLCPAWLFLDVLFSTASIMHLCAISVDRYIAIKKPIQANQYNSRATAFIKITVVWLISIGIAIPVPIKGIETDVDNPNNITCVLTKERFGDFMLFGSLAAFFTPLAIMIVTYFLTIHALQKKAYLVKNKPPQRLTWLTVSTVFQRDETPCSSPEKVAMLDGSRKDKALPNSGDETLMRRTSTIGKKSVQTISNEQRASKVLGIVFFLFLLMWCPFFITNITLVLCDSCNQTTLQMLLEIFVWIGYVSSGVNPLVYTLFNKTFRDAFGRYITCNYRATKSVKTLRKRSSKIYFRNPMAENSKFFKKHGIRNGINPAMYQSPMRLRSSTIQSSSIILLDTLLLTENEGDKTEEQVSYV
Further: assay procedure not described here.

Compound	AC50 (Androgen receptor) [µM]	AC50 [1] [µM]	AC50 [2] [µM]	AC50 [3] [µM]	AC50 [4] [µM]	AC50 [5] [µM]	AC50 [6] [µM]
CCCCCCCC(=O)N[C@H](CN1CCCC1)[C@H](O)c1ccc2c(c1)OCCO2	> 30						
CC(=O)OC(C)OC(=O)C(C)c1ccc(-c2ccccc2)c(F)c1 (stereo not given)	> 30	> 30	> 30				
C[C@H](N)C(=O)O [ALANINE]	> 30	> 30	> 30				
O=C(Nc1nc(-c2cc(Cl)cs2)c(N2CCN(C3CCCCC3)CC2)s1)c1cnc(N2CCC(C(=O)O)CC2)c(Cl)c1 [AVATROMBOPAG]	> 30			> 10	> 10		
COC(=O)C1=C(C)NC(C)=C(C(=O)O[C@H]2CCN(Cc3ccccc3)C2)[C@H]1c1cccc([N+](=O)[O-])c1 [BARNIDIPINE]	> 30	> 30	4.07				
Cc1nnc(SCC2=C(C(=O)O)N3C(=O)[C@@H](NC(=O)Cn4cc(Cl)c(=O)c(Cl)c4)[C@H]3SC2)s1 [CEFAZEDONE]	> 30	> 30	> 30				
CO/N=C(\C(=O)N[C@@H]1C(=O)N2C(C(=O)[O-])=C(C[n+]3cccc4c3CCC4)CS[C@H]12)c1csc(N)n1 [CEFPIROME]		> 30	> 30	> 30	> 30	> 30	> 30
CCC[C@@H]1C[C@@H](C(=O)N[C@@H]([C@H]2O[C@H](SC)[C@H](OP(=O)(O)O)[C@@H](O)[C@H]2O)[C@H](C)Cl)N(C)C1 [CLINDAMYCIN PHOSPHATE]	> 30	> 30	> 30				
Oc1c(I)cc(Cl)c2cccnc12 [CLIOQUINOL]	> 30			> 30	> 30	> 30	> 30
Nc1ccncc1 [DALFAMPRIDINE]	> 30	27.9	> 3				
Cc1onc(-c2c(Cl)cccc2Cl)c1C(=O)N[C@@H]1C(=O)N2[C@@H]1SC(C)(C)[C@@H]2C(=O)O [DICLOXACILLIN]	> 30	> 30	> 30				
C[C@H]1O[C@@H](O[C@H]2[C@@H](O)C[C@H](O[C@H]3[C@@H](O)C[C@H](O[C@H]4CC[C@@]5(C)[C@H](CC[C@@H]6[C@@H]5CC[C@]5(C)[C@@H](C7=CC(=O)OC7)CC[C@]65O)C4)O[C@@H]3C)O[C@@H]2C)C[C@H](O)[C@@H]1O [DIGITOXIN]	> 30						
OC(CCCN1CCCCC1)(c1ccccc1)c1ccccc1 [DIPHENIDOL]	> 30						
C[C@@H](O)[C@H]1C(=O)N2C(C(=O)O)=C([C@H]3CCCO3)S[C@H]12 [FAROPENEM]	> 30	> 30	> 30				
COCCOc1cnc(NS(=O)(=O)c2ccccc2)nc1 [GLYMIDINE]	> 30	> 30	> 30				
CCC(=O)O[C@]1(C(=O)COC(C)=O)CC[C@H]2[C@@H]3CCC4=CC(=O)CC[C@]4(C)[C@H]3[C@@H](O)C[C@@]21C [HYDROCORTISONE ACEPONATE]	0.314	> 30	19.3				
O=[N+]([O-])O[C@H]1CO[C@H]2[C@@H]1OC[C@H]2O[N+](=O)[O-] [ISOSORBIDE DINITRATE]		> 30	> 30				

Compound	AC50 (Androgen receptor) [µM]	AC50 [1] [µM]	AC50 [2] [µM]	AC50 [3] [µM]	AC50 [4] [µM]	AC50 [5] [µM]	AC50 [6] [µM]
NC(=O)NCCC[C@H](N)C(=O)O [L-CITRULLINE]	> 30	> 30	> 30				
CC(=O)O[C@H]1C[C@H](O[C@H]2[C@@H](O)C[C@H](O[C@H]3[C@@H](O)C[C@H](O[C@H]4CC[C@@]5(C)[C@H](CC[C@@H]6[C@@H]5C[C@@H](O)[C@]5(C)[C@@H](C7=CC(=O)OC7)CC[C@]65O)C4)O[C@@H]3C)O[C@@H]2C)O[C@H](C)[C@H]1O[C@@H]1O[C@H](CO)[C@@H](O)[C@H](O)[C@H]1O [LANATOSIDE C]	> 30	> 30	> 30				
Nc1nc(N)nc(Nc2ccc([As]3SCC(CO)S3)cc2)n1 (stereo not given) [MELARSOPROL]	> 30	> 30	22.5				
Cc1cc(CCN2CCN(c3cccc(Cl)c3)CC2)n[nH]1 [MEPIPRAZOLE]	> 30	> 30	26.3				
CC[N+](C)(CC)CCOC(=O)C1c2ccccc2Oc2ccccc21 [METHANTHELINE]	> 30	> 30	0.0287				
CO[C@H]1[C@@H](O)C[C@H](O[C@H]2[C@@H](O)C[C@H](O[C@H]3[C@@H](O)C[C@H](O[C@H]4CC[C@@]5(C)[C@H](CC[C@@H]6[C@@H]5C[C@@H](O)[C@]5(C)[C@@H](C7=CC(=O)OC7)CC[C@]65O)C4)O[C@@H]3C)O[C@@H]2C)O[C@@H]1C [METILDIGOXIN]	> 30	> 30	> 30				
CC1(C)S[C@@H]2[C@H](NC(=O)[C@H](NC(=O)N3CCN(S(C)(=O)=O)C3=O)c3ccccc3)C(=O)N2[C@H]1C(=O)O [MEZLOCILLIN]	> 30	> 30	> 30				
CCC(=O)O[C@@H]1CC(=O)O[C@H](C)C/C=C/C=C/[C@H](OC(C)=O)[C@H](C)C[C@H](CC=O)[C@H](O[C@@H]2O[C@H](C)[C@@H](O[C@H]3C[C@@](C)(OC(C)=O)[C@@H](OC(=O)CC)[C@H](C)O3)[C@H](N(C)C)[C@H]2O)[C@H]1OC [MIOCAMYCIN]	> 30						
CCOC(=O)[C@H](CCc1ccccc1)N[C@@H](C)C(=O)N1Cc2cc(OC)c(OC)cc2C[C@H]1C(=O)O [MOEXIPRIL]		> 30	> 30				
CCN(CC)CCOC(=O)C(Cc1cccc2ccccc12)CC1CCCO1 (stereo not given) [NAFRONYL]		> 30	24.2				
N[C@@H](Cc1c[nH]c2ccc(O)cc12)C(=O)O [OXITRIPTAN]		> 30	> 30				
C1CNCCN1 [PIPERAZINE]		> 30	> 30				
O=C(NC(Cc1cc(=O)[nH]c2ccccc12)C(=O)O)c1ccc(Cl)cc1 (stereo not given) [REBAMIPIDE]		> 30	> 30				
COc1cc([C@@H]2c3cc4c(cc3[C@@H](O[C@@H]3O[C@@H]5CO[C@@H](c6cccs6)O[C@H]5[C@H](O)[C@H]3O)[C@H]3COC(=O)[C@H]23)OCO4)cc(OC)c1O [TENIPOSIDE]		> 30	> 30				
c1ccc2[nH]c(-c3cscn3)nc2c1 [THIABENDAZOLE]	> 30						
C[C@@H]1C[C@H]2[C@@H]3CCC4=CC(=O)C=C[C@]4(C)C3=CC[C@]2(C)[C@H]1C(=O)CN1CCN(c2cc(N3CCCC3)nc(N3CCCC3)n2)CC1 [TIRILAZAD]	6.61						
